In PMC13289148, “Assessment of the toxic effects of parabens, commonly used preservatives in cosmetics, and their halogenated by-products on human skin and endothelial cells” (NAM journal, 2025):
“Also recorded” adds a separate entry of the source.

Columns and labels:
[1] = system: HEK001 cells (human epidermal keratinocytes); assay: MTT cytotoxicity assay, HEK001 keratinocytes; assay type: cell-based; conditions: for EC50: 24 h exposure, MTT, HEK001 keratinocytes, average ± standard deviation, read-out: EC50 from cytotoxicity assay, HEK001; for cytotoxic response at high concentration: HEK001, 100 µM, proliferation could not be observed
Procedure: (§1) The human epidermal keratinocytes HEK001 (CRL-2404, ATCC, Manassas, VA) were maintained in a keratinocyte-serum-free medium supplemented with 5 ng/mL human recombinant EGF. The cells were incubated under 5 % CO2 and a 95 % humidified atmosphere at 37 °C ([Bogen et al., 2017]). HMEC-1 cells (CRL-3243, ATCC) were cultured at 37 °C in a 5 % CO2 humidified atmosphere using MCDB-131 medium supplemented with 10 % fetal bovine serum, 1 % penicillin/streptomycin, 10 mM l-glutamine, 1 μg/mL hydrocortisone, and 10 ng/mL EGF supplement.
(§2) The experiments were performed with biological (96 well plates) and technical (wells) replicates. Four to five biological replicates with four technical replicates were used to determine cytotoxicity. Ten paraben concentrations were assessed, ranging from a low human serum-relevant concentration (1 pM) to a high non-human-relevant concentration (1 mM). A solvent control of 0.6 % DMSO and a positive control of 5 % DMSO were also used. Three representative concentrations were chosen for each cell line for the wound-healing assay. Those concentrations were 1 µM, 10 µM, and 100 µM. Upon dosing, plates were returned to the incubator for a 24-hour exposure period.
(§3) Cell viability was assessed using the MTT assay [3-(4,5-dimethylthiazol-2-yl)−2,5-diphenyltetrazolium bromide] ([Solan et al., 2022]). After 24 h of exposure, a 20 % tetrazolium dye solution was added to the cells. The NAD(P)H-dependent oxidoreductase enzymes in viable cells reduced the tetrazolium dye, producing insoluble formazan crystals visible as a purple coloration, indicative of active cellular respiration. Following the incubation period, the media was carefully removed, leaving the formazan crystals behind. To dissolve these crystals, a 1:1 solution of ethanol and DMSO was added to the plate. Absorbance was then measured at 595 nm on a spectrophotometer to quantify the extent of formazan formation (BioTek SynergyTM H1, Winooski, VT).
(§4) A 24-hour exposure period was selected to evaluate the acute toxicity of parabens on HEK001 and HMEC-1 cell lines. […] Assessing the acute effects on these less-characterized cell lines is critical for enabling meaningful comparisons across models. Additionally, acute toxicity studies minimize confounding factors such as nutrient depletion and cell overgrowth, facilitating higher-throughput screening.

[2] = MTT cytotoxicity assay, HEK001 keratinocytes; assay type: cell-based, human; conditions: human, HEK001 epidermal keratinocytes, 24 h exposure, MTT, HEK001 keratinocytes; average ± standard deviation; read-out: EC50 from cytotoxicity assay, HEK001
Procedure: as §1, §2, §3, §4

HEK001 cells = assay: Wound healing (scratch) assay, HEK001; assay type: cell-based, human; conditions: for proliferation rate in wound healing assay / proliferation rate / wound healing: 24 h; for proliferation rate / wound healing: HEK001, 100 µM
Procedure: as §1, §2
(§5) As described by [Grada et al. (2017)] and [Yarrow et al. (2004)], a wound-healing assay was used to evaluate the proliferation rate of a disrupted cell monolayer. Cells were seeded at 200,000 cells/mL in 48-well plates and allowed to stabilize, reaching 90–100 % confluency within 24–72 h. Once confluent, the growth media was removed, and a scratch was created in the cell monolayer using a pipette tip. Manual disruption of the cell monolayer was chosen over the use of inserts or automated scratching devices to design experiments that are cost-effective and accessible to laboratories with limited budgets. This approach provides greater flexibility in experimental design without reliance on specialized equipment, making it a practical solution for resource-constrained settings. Additionally, the manual scratch method may better simulate real-world injury scenarios. To minimize variability, consistent pipette tip sizes were employed, experiments were performed in multiple replicates, and immediate visual inspections were conducted to ensure reproducibility and uniformity across trials. The exposure media was then applied, and cytochalasin D ([…]) was used as a positive control to inhibit wound healing by suppressing cell division via […]. Cells were incubated with exposure media for 24 h while kinetic high contrast brightfield (HCBF) images were captured every 30 min using the Lionheart FX automated microscope (Biotek, Agilent). Gen5 software analyzed the scratch area over time, measuring the reduction in cell-free area as migration occurred. All data were normalized to the solvent control for consistency.

HMEC-1 cells = assay: Wound healing (scratch) assay, HMEC-1; assay type: cell-based, human; conditions: for sensitivity at high concentration / proliferation rate / wound healing / proliferation rate relative to baseline / untreated control: HMEC-1, 100 µM; for proliferation rate in wound healing assay: HMEC-1, 1–10 µM; for proliferation rate in wound healing assay / proliferation rate / wound healing / proliferation rate relative to baseline / untreated control: 24 h
Procedure: as §1, §2, §5

[3] = MTT cytotoxicity assay, HMEC-1 endothelial cells; assay type: cell-based; conditions: human, HMEC-1 dermal microvascular endothelial cells, read-out: EC50 from cytotoxicity assay, HMEC-1
Procedure: as §1, §2, §3, §4

HepG2 cells [4] = system: HepG2 cells; set-up: method as in Kizhedath et al., 2019; conditions: 125 µM, ref Kizhedath et al., 2019; cited from earlier work
HepG2 cells [5] = system: HepG2 cells; set-up: method as in Khanal et al., 2012; conditions: 125 µM, HepG2, compared to HBA, MeP, and PrP; ref Khanal et al., 2012; cited from earlier work
red blood cells (RBCs) = system: red blood cells (RBCs); set-up: method as in Ko et al. (2023); conditions: ref Ko et al. (2023), cited from earlier work
HDFn cells = system: HDFn cells; set-up: method as in Kizhedath et al., 2019; conditions: 125 µM, ref Kizhedath et al., 2019; cited from earlier work
HaCaT keratinocytes = system: HaCaT keratinocytes; set-up: method as in Couch, 2024; Kinney, 2022; conditions: 200 µM, ref Couch, 2024, Kinney, 2022; cited from earlier work
M624 melanoma cells = system: M624 melanoma cells; set-up: method as in Couch, 2024; Kinney, 2022; conditions: 200 µM, ref Couch, 2024, Kinney, 2022; cited from earlier work
[6] = HEK001, 1 µM, versus solvent control
[7] = HEK001, 10 µM, versus solvent control
[8] = 24 h exposure, MTT, HMEC-1 endothelial cells, average ± standard deviation

| SMILES | EC50 [1] [µM] | cytotoxic response at high concentration [1] | EC50 at 24 h [2] [µM] | proliferation rate in wound healing assay (HEK001 cells; [6]) | sensitivity at high concentration (HMEC-1 cells) | proliferation rate in wound healing assay (HMEC-1 cells) | EC50 at 24 h [3, 8] [µM] | proliferation rate relative to baseline / untreated control (HMEC-1 cells) | proliferation rate / wound healing (HEK001 cells; versus solvent control) | other results |
| --- | --- | --- | --- | --- | --- | --- | --- | --- | --- | --- |
| O=C(OCc1ccccc1)c1ccc(O)cc1 [BeP, benzylparaben] | 3.3 ± 1 | acutely lethal responses | 3.34 ± 0.97 | lower proliferation rates compared to the solvent control | too sensitive to conduct proliferation assays | proliferation rates comparable to those observed in untreated controls | 25.6 ± 3.9 | – | – | proliferation rate in wound healing assay (HEK001 cells; [7]): proliferation significantly decreased; also recorded: lower proliferation rates compared to the solvent control |
| CCCCOC(=O)c1ccc(O)cc1 [BuP, butylparaben] | 1.5 ± 0.51 | acutely lethal responses | 1.52 ± 0.51 | lower proliferation rates compared to the solvent control | too sensitive to conduct proliferation assays | proliferation rates comparable to those observed in untreated controls | 75.8 ± 13.4 | – | – | cell cycle (HepG2 cells [4]): cell cycle arrest in the G1 phase; percentage of apoptotic cells (HepG2 cells [5]): higher percentage of apoptotic cells; proliferation rate in wound healing assay (HEK001 cells; [7]): proliferation significantly decreased; also recorded: lower proliferation rates compared to the solvent control; hemolysis of RBCs (red blood cells (RBCs); 500 µM): increased hemolysis; extracellular phosphatidylserine of RBCs (red blood cells (RBCs); only BuP among MeP, EtP, PrP, BuP, HBA): increase in extracellular phosphatidylserine; cell cycle (HDFn cells): cell cycle arrest in the G1 phase |
| COC(=O)c1ccc(O)c(Cl)c1 [CMeP, methyl 3‑chloro-4-hydroxybenzoate] | – | significant cell death | 2.2 ± 0.8 | – | – | proliferation rates comparable to those observed in untreated controls; also recorded: no significant changes in proliferation | 788 ± 139 | 20–30% | – | proliferation rate in wound healing assay (HEK001 cells; HEK001, 1–10 µM): decrease in proliferation; proliferation rate / wound healing (HMEC-1 cells): reduction |
| COC(=O)c1cc(Br)c(O)c(Br)c1 [DBMeP, methyl 3,5-dibromo-4-hydroxybenzoate] | 1.5 ± 0.4 | – | 1.49 ± 0.37 | initially reduced proliferation | – | – | 489 ± 86.4 | 20–30% | dose-dependent increase in proliferation | proliferation in wound healing assay (HEK001 cells; HEK001, concentrations higher than 1 µM): dose-dependent increase in proliferation; proliferation in wound healing assay (HMEC-1 cells; HMEC-1, concentration not stated, high variability): reduction in proliferation |
| COC(=O)c1cc(Cl)c(O)c(Cl)c1 [DCMeP, methyl 3,5-dichloro-4-hydroxybenzoate] | – | significant cell death | 54.5 ± 17.8 | – | – | no significant changes in proliferation | > 10000 | 20–30% | – | proliferation rate in wound healing assay (HEK001 cells; HEK001, 1–10 µM): decrease in proliferation; proliferation rate / wound healing (HMEC-1 cells): reduction |
| CCOC(=O)c1ccc(O)cc1 [EtP, ethylparaben] | – | – | 536 ± 178 | – | – | proliferation rates comparable to those observed in untreated controls | 171 ± 77.9 | 20–30% | substantial decrease in proliferation rates | – |
| O=C(O)c1ccc(O)cc1 [HBA, 4-hydroxybenzoic acid] | – | – | 696 ± 245 | – | – | – | > 10000 | – | – | – |
| COC(=O)c1ccc(O)cc1 [MeP, Methyl 4-hydroxybenzoate] | – | – | 1310 ± 464 | – | – | proliferation rates comparable to those observed in untreated controls | – | 160% | substantial decrease in proliferation rates | EC50 at 24 h [3]: 1090 ± 618 µM |
| CCCOC(=O)c1ccc(O)cc1 [PrP, propylparaben] | – | acutely lethal responses | 17 ± 9.9 | – | too sensitive to conduct proliferation assays | proliferation rates comparable to those observed in untreated controls | 102 ± 18 | – | – | – |
| CCCCCCCOC(=O)c1ccc(O)cc1 [heptylparaben] | – | – | – | – | – | – | – | – | – | cell viability, cytochrome C levels, caspase 3 (HaCaT keratinocytes): significantly reduced cell viability, increased cytochrome C levels, and activated caspase 3; cell viability, cytochrome C levels, caspase 3 (M624 melanoma cells): significantly reduced cell viability, increased cytochrome C levels, and activated caspase 3 |
